From US20080319001A1, “Cancer Treatment Using Specific 3,6,9-Substituted Acridines” (priority 2005, published 2008)
Like-named read-outs stand apart in the source and are kept apart here.

Legend:
[1] = Cytotoxicity / growth inhibition, MCF7; format: cell-based; details: human, MCF7 cells; read-out: Cytotoxic IC50 vs. MCF7
HPLC solution stability = format: physicochemical
Protocol: Due to the generally low solubility of these compounds in 0.9% NaCl and 5% dextrose it was decided to mix these media with 50% Iso-propanol (IPA) to maintain full dissolution of the compound during these studies.
The remaining 5 mg/ml DMSO stock solution from the pKa determination was used for the stability studies. This solution had been stored in the fridge for several days before these stability studies. A solution with a concentration of 0.1 mg/ml was prepared for each experiment (50 fold dilution of DMSO stock). Stability trials were carried out at 4° C. (fridge) and 25° C. (on top of shaker at 25° C.) and at time points of 0, 1 and 7 days. In the case of 100% IPA data was collected at 0, 1 and 14 days after storage at 25° C. The HPLC purity method discussed in section 4.5 below was used for purity analysis. The largest and second largest peaks were added together due to separation of rotamers as discussed above.

[2] = Pharmacokinetic evaluation in mice (plasma kinetics); format: in vivo, mouse; details: for AUC(0-t): female, MF1, mouse; for Cmax / clearance / half-life: mouse, female MF1 mice; for half-life: single dose (1 mg/kg iv or 20 mg/kg oral; route not stated with values)
Protocol: The test article is identified as BSG17 and has been studied in comparison to BSG01 (BRACO-19). The vials containing bulk test article were stored at room temperature (15-30° C.).
The test compound was reconstituted in 0.9% physiological saline B.P. to the required final concentrations. To ensure the stability of the test formulations, prepared formulations were administered within two hours of preparation.
Treated mice received a single bolus intravenous injection or oral gavage of the test formulations at a dose-volume of […] bodyweight. Control mice were untreated.
The mouse was selected because it is a rodent species and is acceptable to the regulatory authorities for pharmacokinetic studies. Dose levels of 1 mg/kg (intravenous) and 20 mg/kg (oral) were selected for this study.
Female MF1 mice in the weight rang of 26-30 g (6 to 8 weeks of age) were obtained from the BRF Facility, SGHMS/Harlan UK, Bicester and were individually identified using a permanent tail mark (using a non-toxic marker pen). The test article was administered to thirty-six (36) mice after a period of seven (7) days of acclimatisation to the study room.
Blood samples were obtained from three mice per time point and at the time points as specified below:
Blood samples were collected by cardiac puncture with mice held under deep halothane anaesthesia. After sampling mice were euthanased by cervical dislocation.
Samples were collected into pre-heparinised syringes and the samples transferred into 1 ml eppendorf tubes. Plasma was prepared by centrifugation, transferred to clean, labelled eppendorf tubes and frozen at approximately −20° C. pending analysis.
Samples were analysed using HPLC or GC-MS/MS methodology.
Composite plasma concentration time curves were generated over the period of 6-8 hours after the bolus iv or oral dose was administered.

[3] = pKa measurement (Sirius GlpKa, potentiometric and UV titration); format: physicochemical
Protocol: Pka determination was performed on a Sirius GlpKa instrument equipped with a D-PAS (Dip-Probe Absorption Spectroscopy) attachment. Measurements were made by potentiometric and UV titration in MeOH:H2O mixtures at 25° C. The titration media was ionic strength adjusted with 0.15 M KCl. The values found in the MeOH:H2O mixtures were extrapolated to 0% co-solvent via a Yasuda-Shedlovsky extrapolation. Prediction of pKa values was made using ACD v8.07 software.
BSG01-4.14 from aqueous UV measurement (Potentiometry gave 4.15 although incomplete curves were collected). Other values from potentiometric in Aqueous/MeOH mixtures followed by Yasuda-Shedlovsky extrapolation to 0% MeOH. All pKas basic from slope of extrapolation. P BSG17—Values from potentiometric titrations in Aqueous/MeOH mixtures followed by Yasuda-Shedlovsky extrapolation to 0% MeOH. All pKas basic from slop of extrapolation. PKas 2 and 3 for titration in 30% MeOH removed from YS extrapolation due to precipitation.

[4] = Log P (summary of biological and physicochemical properties, Table 4)
[5] = LogP/D measurement (octanol/ISA water titration); format: physicochemical; details: for logD / logP: octanol/ISA (ionic strength adjusted) water; for logP / Measured LogPion: octanol/ISA water; for logP: read-out: Measured LogP
Protocol: The LogP values were measured by titration of solutions of the compound in Octanol/ISA (ionic strength adjusted) water mixtures on a Sirius GipKa instrument. Titrations in different ratios of Octanol to water enabled the calculation of the Log Pion values and therefore the LogD profile. Prediction of LogP values were made using ACD v8.07 and Syracuse KNOWWIN v1.67 software.

tumour cell line = details: Incles et al, 2004; cited from earlier work
[6] = 0.9% NaCl mixed with 50% IPA, 0 days
[7] = 0.9% NaCl mixed with 50% IPA, 1 day, 4 ° C.
[8] = 0.9% NaCl mixed with 50% IPA, 1 day, 25 ° C.
[9] = 0.9% NaCl mixed with 50% IPA, 7 days, 4 ° C.
[10] = 0.9% NaCl mixed with 50% IPA, 7 days, 25 ° C.
[11] = 5% Dextrose mixed with 50% IPA, 0 days
[12] = 5% Dextrose mixed with 50% IPA, 1 day, 4 ° C.
[13] = 5% Dextrose mixed with 50% IPA, 1 day, 25 ° C.
[14] = 5% Dextrose mixed with 50% IPA, 7 days, 4 ° C.
[15] = 5% Dextrose mixed with 50% IPA, 7 days, 25 ° C.
[16] = UV + Pot, 25° C., 0.15 M KCl, read-out: Measured pKa, pKa1
[17] = potentiometric in aqueous/MeOH, Yasuda-Shedlovsky extrapolation to 0% MeOH, read-out: Measured pKa, pKa2
[18] = potentiometric in aqueous/MeOH, Yasuda-Shedlovsky extrapolation to 0% MeOH, read-out: Measured pKa, pKa3
[19] = pH 6, read-out: Measured LogD pH 6
[20] = pH 6.5, read-out: Measured LogD pH 6.5
[21] = pH 7.4, read-out: Measured LogD pH 7.4

O=C(CCN1CCCC1)Nc1ccc2c(NCc3ccc(F)c(F)c3)c3ccc(NC(=O)CCN4CCCC4)cc3nc2c1 [BSG17, N-(9-(3,4-Difluoro-benzylamino)-6-(3-pyrolidin-1-yl-propionamide)-acridin-3-yl)-3-pyrrolidin-1-yl-propionamide]
IC50 at 96 h [1]: 2260 nM
Combined rotamer purity (HPLC solution stability; [6]): 89.4
Purity larger rotamer peak (HPLC solution stability; [6]): 61.4
Purity smaller rotamer peak (HPLC solution stability; [6]): 28.0
Combined rotamer purity (HPLC solution stability; [7]): 85.1
Purity larger rotamer peak (HPLC solution stability; [7]): 58.4
Purity smaller rotamer peak (HPLC solution stability; [7]): 26.8
Combined rotamer purity (HPLC solution stability; [8]): 82.4
Purity larger rotamer peak (HPLC solution stability; [8]): 55.9
Purity smaller rotamer peak (HPLC solution stability; [8]): 26.5
Combined rotamer purity (HPLC solution stability; [9]): 61.0
Purity larger rotamer peak (HPLC solution stability; [9]): 39.2
Purity smaller rotamer peak (HPLC solution stability; [9]): 21.8
Combined rotamer purity (HPLC solution stability; [10]): 54.5
Purity larger rotamer peak (HPLC solution stability; [10]): 33.8
Purity smaller rotamer peak (HPLC solution stability; [10]): 20.8
Combined rotamer purity (HPLC solution stability; [11]): 88.5
Purity larger rotamer peak (HPLC solution stability; [11]): 60.7
Purity smaller rotamer peak (HPLC solution stability; [11]): 27.8
Combined rotamer purity (HPLC solution stability; [12]): 83.8
Purity larger rotamer peak (HPLC solution stability; [12]): 56.9
Purity smaller rotamer peak (HPLC solution stability; [12]): 26.9
Combined rotamer purity (HPLC solution stability; [13]): 78.0
Purity larger rotamer peak (HPLC solution stability; [13]): 52.4
Purity smaller rotamer peak (HPLC solution stability; [13]): 25.6
Combined rotamer purity (HPLC solution stability; [14]): 53.2
Purity larger rotamer peak (HPLC solution stability; [14]): 32.5
Purity smaller rotamer peak (HPLC solution stability; [14]): 20.7
Combined rotamer purity (HPLC solution stability; [15]): 39.4
Purity larger rotamer peak (HPLC solution stability; [15]): 22.3
Purity smaller rotamer peak (HPLC solution stability; [15]): 17.1
Combined rotamer purity (HPLC solution stability; 100% IPA, 0 days): 84.6
Purity larger rotamer peak (HPLC solution stability; 100% IPA, 0 days): 58.8
Purity smaller rotamer peak (HPLC solution stability; 100% IPA, 0 days): 25.8
Combined rotamer purity (HPLC solution stability; 100% IPA, 1 day, 25 ° C.): 81.5
Purity larger rotamer peak (HPLC solution stability; 100% IPA, 1 day, 25 ° C.): 56.6
Purity smaller rotamer peak (HPLC solution stability; 100% IPA, 1 day, 25 ° C.): 25.0
Combined rotamer purity (HPLC solution stability; 100% IPA, 14 days, 25 ° C.): 77.2
Purity larger rotamer peak (HPLC solution stability; 100% IPA, 14 days, 25 ° C.): 52.7
Purity smaller rotamer peak (HPLC solution stability; 100% IPA, 14 days, 25 ° C.): 24.5
AUC(0-t) ([2]; Table 3): 1.23 µM·h
AUC(0-t) ([2]; unit inferred): 1.23 µM·h
Cmax [2]: 1700 nM
clearance [2]: 0.667 mL/min
half-life [2]: 2.1 h
pKa [3, 16]: 8.17
pKa [3, 17]: 9.09
pKa [3, 18]: 9.61
logP [4]: 1.59
logD [5, 19]: -0.15
logD [5, 20]: 0.38
logD [5, 21]: 1.58
logP [5]: 5.54
Measured LogPion [5]: 3.75

CN(C)c1ccc(Nc2c3ccc(NC(=O)CCN4CCCC4)cc3nc3cc(NC(=O)CCN4CCCC4)ccc23)cc1 [BSG01]
IC50 at 96 h [1]: 2530 nM
Combined rotamer purity (HPLC solution stability; [6]): 95.4
Purity larger rotamer peak (HPLC solution stability; [6]): 89.8
Purity smaller rotamer peak (HPLC solution stability; [6]): 5.7
Combined rotamer purity (HPLC solution stability; [7]): 95.7
Purity larger rotamer peak (HPLC solution stability; [7]): 86.8
Purity smaller rotamer peak (HPLC solution stability; [7]): 8.9
Combined rotamer purity (HPLC solution stability; [8]): 93.5
Purity larger rotamer peak (HPLC solution stability; [8]): 82.3
Purity smaller rotamer peak (HPLC solution stability; [8]): 11.2
Combined rotamer purity (HPLC solution stability; [9]): 66.8
Purity larger rotamer peak (HPLC solution stability; [9]): 47.5
Purity smaller rotamer peak (HPLC solution stability; [9]): 19.4
Combined rotamer purity (HPLC solution stability; [10]): 47.6
Purity larger rotamer peak (HPLC solution stability; [10]): 35.1
Purity smaller rotamer peak (HPLC solution stability; [10]): 12.5
Combined rotamer purity (HPLC solution stability; [11]): 94.8
Purity larger rotamer peak (HPLC solution stability; [11]): 88.7
Purity smaller rotamer peak (HPLC solution stability; [11]): 6.1
Combined rotamer purity (HPLC solution stability; [12]): 94.5
Purity larger rotamer peak (HPLC solution stability; [12]): 84.5
Purity smaller rotamer peak (HPLC solution stability; [12]): 10.00
Combined rotamer purity (HPLC solution stability; [13]): 94.5
Purity larger rotamer peak (HPLC solution stability; [13]): 79.5
Purity smaller rotamer peak (HPLC solution stability; [13]): 15.0
Combined rotamer purity (HPLC solution stability; [14]): 79.3
Purity larger rotamer peak (HPLC solution stability; [14]): 48.4
Purity smaller rotamer peak (HPLC solution stability; [14]): 30.9
Combined rotamer purity (HPLC solution stability; [15]): 68.0
Purity larger rotamer peak (HPLC solution stability; [15]): 35.2%
Purity smaller rotamer peak (HPLC solution stability; [15]): 32.8
Combined rotamer purity (HPLC solution stability; 100% IPA, 0 days): 91.9
Purity larger rotamer peak (HPLC solution stability; 100% IPA, 0 days): 86.4
Purity smaller rotamer peak (HPLC solution stability; 100% IPA, 0 days): 5.5
Combined rotamer purity (HPLC solution stability; 100% IPA, 1 day, 25 ° C.): 93.2
Purity larger rotamer peak (HPLC solution stability; 100% IPA, 1 day, 25 ° C.): 87.2
Purity smaller rotamer peak (HPLC solution stability; 100% IPA, 1 day, 25 ° C.): 6.0
Combined rotamer purity (HPLC solution stability; 100% IPA, 14 days, 25 ° C.): 94.0
Purity larger rotamer peak (HPLC solution stability; 100% IPA, 14 days, 25 ° C.): 82.8
Purity smaller rotamer peak (HPLC solution stability; 100% IPA, 14 days, 25 ° C.): 11.2
AUC(0-t) ([2]; Table 3): 0.96 µM·h
AUC(0-t) ([2]; unit inferred): 0.96 µM·h
Cmax [2]: 1900 nM
clearance [2]: 1 mL/min
half-life [2]: 1.1 h
end-to-end fusions in chromosomes (tumour cell line): cause end-to-end fusions in chromosomes
pKa [3, 16]: 4.15
pKa ([3]; aqueous UV, read-out: pKa from aqueous UV measurement): 4.14
pKa [3, 17]: 8.14
pKa [3, 18]: 9.08
pKa ([3]; potentiometric in aqueous/MeOH, Yasuda-Shedlovsky extrapolation to 0% MeOH, read-out: Measured pKa, pKa4): 9.31
pKa ([3]; titration medium, ionic strength adjusted with 0.15 M KCl, potentiometry, incomplete curves, read-out: pKa from potentiometry): 4.15
logP [4]: 1.4
logD [5, 19]: -2.56
logD [5, 20]: -1.47
logD [5, 21]: 0.74
logP [5]: 5.02
Measured LogPion [5]: 2.62
